Measurements: ChEMBL document CHEMBL3352612, “Design, synthesis, and biological activities of 1-aryl-1,4-diazepan-2-one derivatives as novel triple reuptake inhibitors” (Bioorg Med Chem Lett, 2014)
pIC50: −log10 of the molar value. The source made the active and inactive calls. The rule behind the calls is not given here.

Experiments:
[1] = biological target: Sodium-dependent serotonin transporter (Homo sapiens, UniProt P31645); test: Inhibition of [3H]serotonin reuptake at human SERT expressed in CHO cells after 20 mins by scintillation counting; assay type: cell-based
[2] = biological target: Sodium-dependent noradrenaline transporter (Homo sapiens, UniProt P23975); test: Inhibition of [3H]norepinephrine reuptake at human NET expressed in CHO cells after 45 mins by scintillation counting; assay type: cell-based
[3] = biological target: Voltage-gated inwardly rectifying potassium channel KCNH2 (Homo sapiens, UniProt Q12809); test: Inhibition of human ERG
[4] = biological target: Sodium-dependent dopamine transporter (Homo sapiens, UniProt Q01959); test: Inhibition of [3H]dopamine reuptake at human DAT expressed in CHO cells after 60 mins by scintillation counting; assay type: cell-based
Cytochrome P450 2D6 = Cytochrome P450 2D6 (Homo sapiens, UniProt P10635); test: Inhibition of CYP2D6 (unknown origin); assay type: ADME
Mus musculus [5] = test: Antidepressant activity in ICR mouse assessed as immobility time at 3 mg/kg, po measured 60 mins post dose by tail-suspension test; assay type: functional, organism-based; design: dose 3 mg/kg
Mus musculus [6] = test: Antidepressant activity in po dosed ICR mouse assessed as immobility time measured 60 mins post dose by tail-suspension test; assay type: functional, organism-based
Mus musculus [7] = test: Increase in extracellular norepinephrine level in ICR mouse prefrontal cortex at 3 mg/kg, po measured at 120 mins post dose relative to basal level by microdialysis; assay type: functional
Mus musculus [8] = test: Increase in extracellular 5-HT level in ICR mouse prefrontal cortex at 3 mg/kg, po measured at 120 mins post dose relative to basal level by microdialysis; assay type: functional
Mus musculus [9] = test: Increase in extracellular dopamine level in ICR mouse prefrontal cortex at 3 mg/kg, po measured at 120 mins post dose relative to basal level by microdialysis; assay type: functional

Chain of Sodium-dependent dopamine transporter (Q01959 whole entry): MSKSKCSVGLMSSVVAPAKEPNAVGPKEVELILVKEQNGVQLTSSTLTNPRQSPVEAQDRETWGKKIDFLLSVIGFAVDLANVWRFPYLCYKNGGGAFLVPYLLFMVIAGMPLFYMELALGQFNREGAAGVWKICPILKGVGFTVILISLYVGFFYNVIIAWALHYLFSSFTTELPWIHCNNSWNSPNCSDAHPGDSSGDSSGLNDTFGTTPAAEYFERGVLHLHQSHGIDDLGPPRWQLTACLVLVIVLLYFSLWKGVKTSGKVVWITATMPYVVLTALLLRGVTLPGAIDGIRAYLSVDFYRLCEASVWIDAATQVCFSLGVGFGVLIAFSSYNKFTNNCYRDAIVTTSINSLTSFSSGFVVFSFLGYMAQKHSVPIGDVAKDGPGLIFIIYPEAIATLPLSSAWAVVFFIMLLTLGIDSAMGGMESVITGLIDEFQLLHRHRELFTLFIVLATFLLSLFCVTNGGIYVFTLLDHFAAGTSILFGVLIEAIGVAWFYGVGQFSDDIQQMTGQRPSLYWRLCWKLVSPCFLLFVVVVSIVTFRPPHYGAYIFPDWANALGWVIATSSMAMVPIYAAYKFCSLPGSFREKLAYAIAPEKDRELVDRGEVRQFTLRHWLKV
Chain of Sodium-dependent noradrenaline transporter (P23975 whole entry): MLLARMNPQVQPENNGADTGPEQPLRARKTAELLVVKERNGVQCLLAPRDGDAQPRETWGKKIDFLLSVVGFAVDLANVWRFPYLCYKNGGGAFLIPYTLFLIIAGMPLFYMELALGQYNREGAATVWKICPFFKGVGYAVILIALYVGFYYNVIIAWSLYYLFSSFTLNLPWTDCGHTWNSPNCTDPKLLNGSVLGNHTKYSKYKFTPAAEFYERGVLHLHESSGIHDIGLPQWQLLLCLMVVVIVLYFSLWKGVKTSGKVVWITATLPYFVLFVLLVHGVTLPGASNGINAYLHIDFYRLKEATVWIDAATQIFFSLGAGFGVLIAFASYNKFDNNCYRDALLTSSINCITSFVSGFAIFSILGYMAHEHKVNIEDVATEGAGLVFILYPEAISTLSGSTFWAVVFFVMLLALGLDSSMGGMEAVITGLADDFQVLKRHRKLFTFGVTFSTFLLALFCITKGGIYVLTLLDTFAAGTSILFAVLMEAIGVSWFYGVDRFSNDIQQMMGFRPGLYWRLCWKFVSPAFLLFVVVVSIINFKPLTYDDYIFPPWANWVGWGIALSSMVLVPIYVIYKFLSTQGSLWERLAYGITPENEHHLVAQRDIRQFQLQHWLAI
Chain of Cytochrome P450 2D6 (P10635 whole entry): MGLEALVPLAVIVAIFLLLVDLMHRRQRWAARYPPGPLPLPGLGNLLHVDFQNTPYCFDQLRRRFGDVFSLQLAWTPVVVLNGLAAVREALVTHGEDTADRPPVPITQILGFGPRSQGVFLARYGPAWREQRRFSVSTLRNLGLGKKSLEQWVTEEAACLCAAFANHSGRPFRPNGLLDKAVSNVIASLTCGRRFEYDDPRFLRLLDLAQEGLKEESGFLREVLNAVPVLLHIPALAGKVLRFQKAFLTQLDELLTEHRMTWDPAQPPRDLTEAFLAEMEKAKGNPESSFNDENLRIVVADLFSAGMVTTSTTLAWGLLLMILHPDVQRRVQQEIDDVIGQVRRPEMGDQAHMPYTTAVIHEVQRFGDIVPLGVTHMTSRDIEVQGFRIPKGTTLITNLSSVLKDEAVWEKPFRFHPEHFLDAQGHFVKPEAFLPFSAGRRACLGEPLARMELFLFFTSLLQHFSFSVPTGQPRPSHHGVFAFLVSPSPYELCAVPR
Chain of Voltage-gated inwardly rectifying potassium channel KCNH2 (Q12809 whole entry): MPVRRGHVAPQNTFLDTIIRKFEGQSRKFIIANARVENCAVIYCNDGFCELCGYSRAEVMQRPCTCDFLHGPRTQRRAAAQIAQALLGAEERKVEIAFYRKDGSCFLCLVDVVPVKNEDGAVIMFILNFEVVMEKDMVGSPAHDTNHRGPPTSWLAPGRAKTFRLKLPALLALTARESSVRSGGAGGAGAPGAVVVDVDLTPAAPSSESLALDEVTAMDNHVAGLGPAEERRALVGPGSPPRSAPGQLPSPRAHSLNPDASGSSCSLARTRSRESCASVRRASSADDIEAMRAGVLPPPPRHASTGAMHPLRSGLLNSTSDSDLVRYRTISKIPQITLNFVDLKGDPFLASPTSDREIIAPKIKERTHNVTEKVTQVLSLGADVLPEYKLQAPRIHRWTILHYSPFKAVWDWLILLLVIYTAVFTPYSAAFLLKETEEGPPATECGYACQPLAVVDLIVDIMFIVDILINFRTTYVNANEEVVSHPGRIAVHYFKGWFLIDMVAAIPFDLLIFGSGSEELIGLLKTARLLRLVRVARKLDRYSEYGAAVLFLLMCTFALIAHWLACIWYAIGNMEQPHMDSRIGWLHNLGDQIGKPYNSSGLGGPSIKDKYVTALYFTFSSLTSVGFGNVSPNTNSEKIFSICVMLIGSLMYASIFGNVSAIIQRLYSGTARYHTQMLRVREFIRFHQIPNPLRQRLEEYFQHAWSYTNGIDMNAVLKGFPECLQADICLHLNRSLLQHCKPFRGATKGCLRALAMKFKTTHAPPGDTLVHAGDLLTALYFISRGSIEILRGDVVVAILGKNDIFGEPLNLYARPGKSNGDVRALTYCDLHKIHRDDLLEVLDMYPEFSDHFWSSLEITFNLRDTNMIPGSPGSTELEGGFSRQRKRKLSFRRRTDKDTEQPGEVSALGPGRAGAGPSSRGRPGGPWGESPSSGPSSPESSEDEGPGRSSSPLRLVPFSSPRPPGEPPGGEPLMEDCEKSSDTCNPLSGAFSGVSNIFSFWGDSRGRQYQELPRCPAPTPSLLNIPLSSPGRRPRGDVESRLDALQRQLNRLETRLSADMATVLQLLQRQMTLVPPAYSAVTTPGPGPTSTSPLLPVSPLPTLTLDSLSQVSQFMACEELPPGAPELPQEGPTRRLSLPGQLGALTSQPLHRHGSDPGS
Chain of Sodium-dependent serotonin transporter (P31645 whole entry): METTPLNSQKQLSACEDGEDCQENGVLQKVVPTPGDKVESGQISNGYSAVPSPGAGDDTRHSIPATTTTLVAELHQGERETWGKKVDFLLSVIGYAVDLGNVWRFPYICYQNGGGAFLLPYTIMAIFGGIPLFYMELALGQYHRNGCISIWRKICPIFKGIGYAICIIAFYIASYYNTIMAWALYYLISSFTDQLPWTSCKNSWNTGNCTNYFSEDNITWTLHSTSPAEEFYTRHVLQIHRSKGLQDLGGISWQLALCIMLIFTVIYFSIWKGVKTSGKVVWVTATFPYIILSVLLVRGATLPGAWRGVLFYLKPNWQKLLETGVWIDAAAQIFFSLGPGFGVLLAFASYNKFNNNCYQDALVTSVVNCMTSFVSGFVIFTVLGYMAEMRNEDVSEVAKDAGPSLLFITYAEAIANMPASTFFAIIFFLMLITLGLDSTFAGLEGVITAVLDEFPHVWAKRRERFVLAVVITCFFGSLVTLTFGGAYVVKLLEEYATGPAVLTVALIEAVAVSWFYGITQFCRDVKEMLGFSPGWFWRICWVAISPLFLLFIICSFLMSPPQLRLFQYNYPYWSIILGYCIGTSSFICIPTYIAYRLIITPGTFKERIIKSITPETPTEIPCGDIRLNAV

| SMILES | pIC50 [1] | pIC50 [2] | inhibition (INH) [3] | pIC50 [4] | inhibition (INH) (Cytochrome P450 2D6) | Activity (Mus musculus [5]) | Activity (Mus musculus [6]) | Activity (Mus musculus [7]) | Activity (Mus musculus [8]) | Activity (Mus musculus [9]) |
| --- | --- | --- | --- | --- | --- | --- | --- | --- | --- | --- |
| CC1CCN(c2ccc(Cl)c(Cl)c2)C(=O)CN1.Cl (racemic) | 5.37 | 5.77 | Not Active | < 5.00 | Not Active |  |  |  |  |  |
| C[C@H]1NCCCN(c2ccc3ccccc3c2)C1=O | 6.59 | 6.24 |  | < 5.00 |  |  |  |  |  |  |
| O=C1CNCC2(CC2)CN1c1ccc(Cl)c(Cl)c1 | 5.66 | 7.09 |  | 6.92 |  |  |  |  |  |  |
| Cl.O=C1CNCCCN1c1ccc(Cl)c(Cl)c1 | 7.30 | 7.89 | Not Active | 6.38 | Not Active |  |  |  |  |  |
| CCC1NCCCN(c2ccc(Cl)c(Cl)c2)C1=O.Cl (racemic) | 6.24 | 8.11 | Not Active | 6.72 | Not Active |  |  |  |  |  |
| CCC1NCCCN(c2ccc3ccccc3c2)C1=O.Cl (racemic) | 7.06 | 8.04 | Not Active | 6.89 | Not Active |  |  |  |  |  |
| CC1CNCC(=O)N(c2ccc(Cl)c(Cl)c2)C1 (racemic) | 5.66 | 6.59 |  | 5.40 |  |  |  |  |  |  |
| CC1CCNCC(=O)N1c1ccc(Cl)c(Cl)c1 (racemic) | 5.72 | 6.18 |  | 5.35 |  |  |  |  |  |  |
| CN1CCCN(c2ccc(Cl)c(Cl)c2)C(=O)C1.Cl | 5.26 | 5.49 | Not Active | < 5.00 | Not Active |  |  |  |  |  |
| O=C1CNCC(F)(F)CN1c1ccc(Cl)c(Cl)c1 | 5.89 | 5.70 |  | 5.09 |  |  |  |  |  |  |
| C[C@@H]1NCCCN(c2ccc3ccccc3c2)C1=O.Cl | 7.08 | 8.42 | Not Active | 6.80 | Not Active | Active | Dose-dependent effect | 750% | 210% | 640% |
| CC1NCCCN(c2ccc(Cl)c(Cl)c2)C1=O.Cl (racemic) | 6.28 | 8.10 | Not Active | 6.33 | Not Active |  |  |  |  |  |
| CC1NCCCN(c2ccc3ccccc3c2)C1=O.Cl (racemic) | 6.70 | 7.85 | Not Active | 6.47 | Not Active |  |  |  |  |  |
